“And” between values parts separate entries of the source, which are not always exact repeats. Equal entries are not always repeated. The source made the active and inactive calls.
Tests used:
[1] = viability loss in THP-1 monocytes – THP-1 cells, cytotoxicity control for Vif-APOBEC3G degradation inhibitor project, dose response (AID 1117359); type: functional; settings: THP-1
Protein Tat = Protein Tat (Human immunodeficiency virus type 1 group M subtype B (isolate HXB2)(HIV-1), UniProt P04608); type: functional;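 further: tat binding to TAR RNA read out by fluorescence polarization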
[2] = molecular target: T1, Carboxy-terminal domain RNA polymerase II polypeptide A small phosphatase 1 (Homo sapiens, UniProt Q9GZU7); assay: CTDSP1 inhibitors, concentration-response, biochemical, absorbance readout, ultra-high-throughput screen actives (AID 540297); type: functional
T1 sequence (Q9GZU7 whole entry): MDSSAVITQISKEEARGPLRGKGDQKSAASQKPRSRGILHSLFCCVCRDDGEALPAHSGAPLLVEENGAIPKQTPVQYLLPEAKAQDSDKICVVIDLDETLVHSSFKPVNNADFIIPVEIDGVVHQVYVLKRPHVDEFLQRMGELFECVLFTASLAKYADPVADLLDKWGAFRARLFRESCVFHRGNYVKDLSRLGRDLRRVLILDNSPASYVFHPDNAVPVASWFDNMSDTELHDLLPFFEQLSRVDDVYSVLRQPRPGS

Bcl-2-related protein A1 [3] = molecular target: T2, Bcl-2-related protein A1 (Mus musculus, UniProt Q07440); assay: small-molecule antagonists of Bfl-1/BH3 interaction – biochemical, TR-FRET, mouse Bfl-1, confirmation (AID 621);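 further: TR-FRET binding of GST-Bfl-1 to FITC-labelled Bid peptide via terbium antibody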
T2 sequence (Q07440 whole entry): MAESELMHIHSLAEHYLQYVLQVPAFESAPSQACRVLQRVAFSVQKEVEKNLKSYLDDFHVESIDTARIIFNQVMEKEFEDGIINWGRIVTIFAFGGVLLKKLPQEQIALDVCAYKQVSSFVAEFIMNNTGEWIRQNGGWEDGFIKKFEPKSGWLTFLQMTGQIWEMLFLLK

Bcl-2-related protein A1 [4] = molecular target: T2, Bcl-2-related protein A1; assay: displacement of Bid BH3 peptide from Bfl-1 – biochemical, fluorescence polarization, FITC-Bid, mouse, primary screen (AID 432)
[5] = molecular target: T3, Replicative DNA helicase DnaB (Mycobacterium tuberculosis, UniProt P9WMR3); assay: DnaB intein splicing inhibitors, dose response, biochemical, cell-free fluorescence (AID 449749); type: functional
T3 sequence (P9WMR3 whole entry): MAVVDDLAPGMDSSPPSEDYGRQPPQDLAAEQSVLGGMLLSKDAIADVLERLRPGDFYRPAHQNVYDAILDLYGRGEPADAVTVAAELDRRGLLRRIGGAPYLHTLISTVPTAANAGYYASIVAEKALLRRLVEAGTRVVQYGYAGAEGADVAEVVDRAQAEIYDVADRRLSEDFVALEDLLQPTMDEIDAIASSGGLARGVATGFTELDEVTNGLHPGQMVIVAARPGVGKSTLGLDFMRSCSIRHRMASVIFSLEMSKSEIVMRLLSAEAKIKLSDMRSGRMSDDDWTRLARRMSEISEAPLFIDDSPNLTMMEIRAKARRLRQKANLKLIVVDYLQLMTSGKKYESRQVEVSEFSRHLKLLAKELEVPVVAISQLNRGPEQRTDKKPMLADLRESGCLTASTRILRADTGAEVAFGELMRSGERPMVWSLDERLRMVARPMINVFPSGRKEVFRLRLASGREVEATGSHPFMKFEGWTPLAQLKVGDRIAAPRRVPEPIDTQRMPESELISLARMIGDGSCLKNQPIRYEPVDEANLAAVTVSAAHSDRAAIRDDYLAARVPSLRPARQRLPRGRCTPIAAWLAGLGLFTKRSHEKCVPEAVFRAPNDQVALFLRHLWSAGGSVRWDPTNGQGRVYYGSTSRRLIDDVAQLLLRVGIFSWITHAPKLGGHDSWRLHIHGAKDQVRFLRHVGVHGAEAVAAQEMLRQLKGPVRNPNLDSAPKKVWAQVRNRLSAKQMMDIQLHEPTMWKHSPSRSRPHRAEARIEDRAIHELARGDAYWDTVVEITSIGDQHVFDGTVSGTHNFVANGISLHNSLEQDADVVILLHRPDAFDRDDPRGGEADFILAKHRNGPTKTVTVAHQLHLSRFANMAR

Bcl-2-related protein A1 [6] = molecular target: T2, Bcl-2-related protein A1; assay: Bfl-1 binding inhibitors, SAR follow-up, biochemical, fluorescence polarization (AID 1070)
[7] = molecular target: Glyceraldehyde-3-phosphate dehydrogenase (Homo sapiens, UniProt P04406)
Protein RecA = molecular target: T4, Protein RecA (Mycobacterium tuberculosis, UniProt P9WHJ3); assay: Fluorescence Cell-Free Homogeneous Dose Retest to Identify Inhibitors of RecA-Intein Splicing Activity. [Related pubchem assays (depositor defined):AID2097, AID2223, AID489010, AID492950]; type: functional
T4 sequence (P9WHJ3 whole entry): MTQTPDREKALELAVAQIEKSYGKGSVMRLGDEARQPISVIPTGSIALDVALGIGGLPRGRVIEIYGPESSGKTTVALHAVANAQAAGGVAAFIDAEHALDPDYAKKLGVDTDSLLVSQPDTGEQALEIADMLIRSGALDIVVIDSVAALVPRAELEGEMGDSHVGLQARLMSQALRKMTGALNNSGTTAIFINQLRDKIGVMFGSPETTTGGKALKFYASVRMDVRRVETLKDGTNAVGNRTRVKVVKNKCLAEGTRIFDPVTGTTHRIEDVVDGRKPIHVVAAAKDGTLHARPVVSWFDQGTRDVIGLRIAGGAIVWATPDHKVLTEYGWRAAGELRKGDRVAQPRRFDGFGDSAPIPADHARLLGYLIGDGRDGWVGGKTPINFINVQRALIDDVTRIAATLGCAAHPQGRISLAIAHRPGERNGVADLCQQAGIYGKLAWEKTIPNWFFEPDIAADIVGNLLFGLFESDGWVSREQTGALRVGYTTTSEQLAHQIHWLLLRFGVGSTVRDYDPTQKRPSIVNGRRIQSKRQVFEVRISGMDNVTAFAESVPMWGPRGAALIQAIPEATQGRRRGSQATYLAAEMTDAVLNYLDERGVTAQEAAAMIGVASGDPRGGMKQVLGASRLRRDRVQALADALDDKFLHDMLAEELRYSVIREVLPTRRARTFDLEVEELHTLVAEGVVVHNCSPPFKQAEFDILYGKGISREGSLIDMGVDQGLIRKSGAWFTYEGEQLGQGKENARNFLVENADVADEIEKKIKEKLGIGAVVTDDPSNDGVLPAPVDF

Genome polyprotein = Genome polyprotein (dengue virus type 2, UniProt P29990); assay: flavivirus cap methylation enzyme inhibition – biochemical, confirmation dose response, primary screen (AID 588689); type: functional
[8] = molecular target: Sphingosine 1-phosphate receptor 2 (Homo sapiens, UniProt O95136); assay: Dose Response Cell Based Assay for Antagonists of the S1P2 Receptor. [Related pubchem assays: 856, 736 ]; type: functional
[9] = molecular target: T5, Low molecular weight phosphotyrosine protein phosphatase (Homo sapiens, UniProt P24666); assay: inhibition of human LMPTP enzyme activity – biochemical, absorbance, pNPP substrate, LMPTP-A isoform, set 2, orthogonal assay, dose response (AID 743308); type: functional
T5 sequence (P24666 whole entry): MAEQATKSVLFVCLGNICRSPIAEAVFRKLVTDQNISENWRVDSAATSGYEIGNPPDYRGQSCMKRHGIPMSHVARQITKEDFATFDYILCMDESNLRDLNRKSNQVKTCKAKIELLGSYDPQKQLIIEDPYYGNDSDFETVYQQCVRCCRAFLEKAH

[10] = molecular target: T5, Low molecular weight phosphotyrosine protein phosphatase; assay: inhibition of LMPTP-A enzymatic activity – biochemical, OMFP substrate, fluorescence intensity, set 2, dose response (AID 743307); type: functional

Sequence of Protein Tat (P04608 whole entry, the tested form may be a part): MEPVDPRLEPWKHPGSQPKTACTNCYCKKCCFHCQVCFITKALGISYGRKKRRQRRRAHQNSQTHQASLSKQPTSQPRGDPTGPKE
Sequence of Sphingosine 1-phosphate receptor 2 (O95136 whole entry, canonical isoform): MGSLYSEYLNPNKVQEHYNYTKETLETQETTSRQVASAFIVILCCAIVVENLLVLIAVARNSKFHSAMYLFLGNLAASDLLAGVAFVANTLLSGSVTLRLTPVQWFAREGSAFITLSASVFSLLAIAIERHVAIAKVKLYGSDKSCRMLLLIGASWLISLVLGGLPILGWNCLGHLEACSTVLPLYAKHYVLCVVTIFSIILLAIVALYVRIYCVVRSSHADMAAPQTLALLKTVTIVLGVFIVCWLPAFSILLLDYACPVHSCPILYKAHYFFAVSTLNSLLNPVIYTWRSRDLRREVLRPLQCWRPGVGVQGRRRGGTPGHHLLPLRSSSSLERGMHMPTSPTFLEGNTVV
Sequence of Genome polyprotein (P29990 2492-3391 limits assumed): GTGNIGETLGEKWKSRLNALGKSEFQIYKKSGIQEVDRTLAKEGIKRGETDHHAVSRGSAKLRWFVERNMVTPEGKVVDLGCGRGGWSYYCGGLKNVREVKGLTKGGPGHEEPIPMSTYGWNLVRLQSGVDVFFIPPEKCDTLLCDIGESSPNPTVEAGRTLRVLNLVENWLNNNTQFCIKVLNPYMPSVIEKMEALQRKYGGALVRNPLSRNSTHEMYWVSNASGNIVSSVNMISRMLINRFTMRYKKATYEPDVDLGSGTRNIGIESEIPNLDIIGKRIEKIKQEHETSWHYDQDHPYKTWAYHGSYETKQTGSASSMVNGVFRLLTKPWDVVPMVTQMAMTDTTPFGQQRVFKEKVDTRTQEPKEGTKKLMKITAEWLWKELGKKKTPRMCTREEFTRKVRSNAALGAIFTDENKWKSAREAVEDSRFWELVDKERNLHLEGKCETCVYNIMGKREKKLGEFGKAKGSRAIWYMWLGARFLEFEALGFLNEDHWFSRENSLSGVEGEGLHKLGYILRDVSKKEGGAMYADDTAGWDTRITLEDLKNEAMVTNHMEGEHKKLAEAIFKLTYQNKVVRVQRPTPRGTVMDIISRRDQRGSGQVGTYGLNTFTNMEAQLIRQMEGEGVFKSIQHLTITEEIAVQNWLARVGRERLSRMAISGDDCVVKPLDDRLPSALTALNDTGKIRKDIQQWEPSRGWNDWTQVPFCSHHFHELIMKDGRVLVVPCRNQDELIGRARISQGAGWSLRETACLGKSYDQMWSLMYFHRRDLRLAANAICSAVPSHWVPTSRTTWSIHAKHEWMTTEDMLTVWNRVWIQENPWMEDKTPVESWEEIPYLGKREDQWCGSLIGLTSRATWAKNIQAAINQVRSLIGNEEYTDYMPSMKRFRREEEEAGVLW
Sequence of Glyceraldehyde-3-phosphate dehydrogenase (P04406 whole entry): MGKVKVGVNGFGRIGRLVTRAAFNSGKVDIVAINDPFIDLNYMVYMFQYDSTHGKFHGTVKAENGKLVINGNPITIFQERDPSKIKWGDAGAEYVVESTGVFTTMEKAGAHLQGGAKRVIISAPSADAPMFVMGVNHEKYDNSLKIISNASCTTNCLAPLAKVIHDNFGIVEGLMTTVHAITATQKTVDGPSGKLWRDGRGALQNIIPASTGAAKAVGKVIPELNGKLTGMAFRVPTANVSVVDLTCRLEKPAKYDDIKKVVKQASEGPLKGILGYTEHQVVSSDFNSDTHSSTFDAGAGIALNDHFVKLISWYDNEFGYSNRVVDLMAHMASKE

For `CN(CC(=O)Nc1ccc(F)cc1)C(=O)c1cc(-c2ccco2)nc2ccccc12`, the CC50 [1] was > 40 µM (active), the IC50 (Protein Tat) was > 100 µM (active) and the IC50 [2] was 5.11 µM (active).

With `CN1CCN(C2=C(Cl)C(=O)N(c3ccc(Cl)c(Cl)c3)C2=O)CC1` the IC50 (Bcl-2-related protein A1 [3]) was 580 nM (active) and 500 nM (active), the IC50 (Bcl-2-related protein A1 [4]) was 650 nM (active) and the AC50 [5] was 3.75 µM (active). The IC50 (Bcl-2-related protein A1 [6]) was 362 nM (active), the IC50 [7] was > 100 µM (not active) and the EC50 (Protein RecA) was 2.22 µM (active). The IC50 (Genome polyprotein) was 16.9 µM (active).

With `CN(C)/C=N/C(=O)c1sc2cc(C(F)(F)F)cnc2c1-c1ccccc1` the IC50 [8] was > 30 µM (not active).

For `CN1CCN(c2nc(-c3ccccc3)nc3ccccc23)CC1`, the IC50 [9] was > 80 µM (inactive) and the IC50 [10] was > 80 µM (inactive).

Reference: ChEMBL document CHEMBL1201862, “PubChem BioAssay data set” (2004)
